Assay: Safety: adverse events (NCI-CTCAE v4.0), DLT, MTD, RP2D
Format: in vivo
Description: AEs were assessed using the National Cancer Institute-Common Terminology Criteria for Adverse Events (NCI-CTCAE v4.0). […] The protocol-defined GDC-0810-specific AEs of special interest (AESI) which were non-serious adverse events that required expedited reporting to the sponsor, included DLTs occurring during the DLT assessment window, grade ≥ 2 vomiting/diarrhea, grade ≥ 3 nausea, grade ≥ 2 thromboembolic events, grade ≥ 2 vaginal or uterine hemorrhage, and grade ≥ 3 elevation of ALT or AST.
Analyses of safety, pharmacokinetics, anti-tumor activity, and data from the FES-PET imaging correlative studies were planned. Confirmatory inferential analyses and imputation for missing data were not planned due to the exploratory nature of this study. Descriptive statistics were used to summarize patient data. The number of patients to be enrolled was dependent upon the observed safety and pharmacokinetic profile during dose escalations. The safety- and efficacy-evaluable population included patients who received at least one dose of the study drug. Safety was assessed through summaries of DLTs, AEs, changes in select laboratory test results, vital signs, ECGs, and changes in endometrial thickness. Objective response (with confirmation) and clinical benefit rates (CBR) were derived per RECIST v1.1 and summarized by dose level and cohort. […]
polyps, endometrial cancer, endometrial hyperplasia, and other significant disorders); any […]
disease or chronic diarrhea, short bowel syndrome, or upper gastrointestinal surgery; known human immunodeficiency virus (HIV) infection; known clinically significant history of liver disease; major surgery within 4 weeks prior to enrollment; or radiation therapy within 2 weeks […]
There were phase-specific exclusion criteria as well. In phase Ib, cohort C1 excluded patients with a history of venous thromboembolic event requiring therapeutic anticoagulation or vaginal bleeding within 2 months prior to enrollment. In phase IIa, cohorts A1 and A2 excluded patients with >1 chemotherapy in the advanced/metastatic disease setting. In phase IIa, cohort B1 excluded patients with >1 prior AI in the advanced/metastatic disease setting or prior […]
In phase IIa, cohort B2 excluded patients with >1 prior AI or >1 prior chemotherapy in the advanced/metastatic disease setting.
Patients in phase Ia in dose escalation received oral doses of GDC-0810 during 28-day cycles given once daily (QD) or twice-daily (BID), with fasting and without fasting, and with a single dose given on day −7 leading into cycle 1. The starting dose in the first cohort was 100 mg per day based on preclinical studies. Dose escalation to 200 mg and by 200 mg increments in successive cohorts occurred in the absence of dose-limiting toxicities (DLTs), or conditionally in the presence of DLTs. A DLT was defined as any adverse event (AE) occurring during the DLT window deemed by the investigator or sponsor to be related to the study drug unless they were clearly related to disease progression or other cause; DLT incidences were evaluated from day […]
patients in a dose cohort experienced a DLT, 3 additional patients were assigned to that dose; dose escalation to the next level proceeded if DLTs were experienced by ≤1 patient out of 6. If ≥2 patients experienced DLTs at a given dose, a lower dose was to be declared the maximum […]
Phase Ib was a dose-escalation study of GDC-0810 starting at 400 mg QD, as […]
Phase IIa explored the recommended phase 2 dose (RP2D) from phase Ia. All patients received GDC-0810 600 mg under non-fasting conditions. Cohorts A1 and A2 enrolled patients with tumors harboring ESR1 mutations with no prior fulvestrant use in cohort A1 while prior fulvestrant use was allowed in cohort A2. Cohorts B1 and B2 enrolled patients whose disease had progressed and who may have had one or no AI therapy; there was no prior fulvestrant use in cohort B1 while prior fulvestrant use was allowed in cohort B2.
Patients in all three study phases continued treatment until unacceptable toxicity, disease

[1] = phase 1a (n=41), grade 3, cohort 200 mg
[2] = phase 1a (n=41), grade 3, cohort 300 mg, BID
[3] = phase 1a (n=41), grade 3, cohort 600 mg
[4] = phase 1a (n=41), grade 3, cohort 800 mg, non-fasting
[5] = phase 1a (n=41), grade 4, cohort 600 mg, non-fasting
[6] = phase 1a (n=41), grade 5, cohort 600 mg, non-fasting
[7] = phase IIa A1, 600 mg QD, n = 19
[8] = phase IIa A2, 600 mg QD, n = 10
[9] = phase IIa B1, 600 mg QD, n = 53
[10] = phase IIa B2, 600 mg QD, n = 19

SMILES: CC/C(=C(/c1ccc(/C=C/C(=O)O)cc1)c1ccc2[nH]ncc2c1)c1ccc(F)cc1Cl [GDC-0810]
- tolerability based on frequency of gastrointestinal AEs (800 mg daily): intolerable
- patients who reported SAEs regardless of attribution (across all 3 phases): 33 patients
- AST increased, Grades 3–5 (all 3 study phases, N = 152): 4 (3) n (%)
- AST increased, all grades (all 3 study phases, N = 152): 26 (17) n (%)
- Abdominal pain, Grades 3–5 (all 3 study phases, N = 152): 3 (2) n (%)
- Abdominal pain, all grades (all 3 study phases, N = 152): 28 (18) n (%)
- Anemia, Grades 3–5 (all 3 study phases, N = 152): 4 (3) n (%)
- Anemia, all grades (all 3 study phases, N = 152): 34 (22) n (%)
- Arthralgia, Grades 3–5 (all 3 study phases, N = 152): 0 n (%)
- Arthralgia, all grades (all 3 study phases, N = 152): 32 (21) n (%)
- Constipation, Grades 3–5 (all 3 study phases, N = 152): 1 (1) n (%)
- Constipation, all grades (all 3 study phases, N = 152): 42 (28) n (%)
- Cough, Grades 3–5 (all 3 study phases, N = 152): 1 (1) n (%)
- Cough, all grades (all 3 study phases, N = 152): 30 (20) n (%)
- Decreased appetite, Grades 3–5 (all 3 study phases, N = 152): 0 n (%)
- Decreased appetite, all grades (all 3 study phases, N = 152): 38 (25) n (%)
- Diarrhea, Grades 3–5 (all 3 study phases, N = 152): 7 (5) n (%)
- Diarrhea, all grades (all 3 study phases, N = 152): 95 (63) n (%)
- Dyspepsia, Grades 3–5 (all 3 study phases, N = 152): 1 (1) n (%)
- Dyspepsia, all grades (all 3 study phases, N = 152): 30 (20) n (%)
- Fatigue, Grades 3–5 (all 3 study phases, N = 152): 6 (4) n (%)
- Fatigue, all grades (all 3 study phases, N = 152): 77 (51) n (%)
- Flatulence, Grades 3–5 (all 3 study phases, N = 152): 0 n (%)
- Flatulence, all grades (all 3 study phases, N = 152): 29 (19) n (%)
- Nausea, Grades 3–5 (all 3 study phases, N = 152): 1 (1) n (%)
- Nausea, all grades (all 3 study phases, N = 152): 82 (54) n (%)
- Vomiting, Grades 3–5 (all 3 study phases, N = 152): 4 (3) n (%)
- Vomiting, all grades (all 3 study phases, N = 152): 47 (31) n (%)
- patients experiencing ≥ 1 AE regardless of causality (all who received the study drug): All patients
- dose-limiting toxicity (DLT) (dose escalation, 35-day DLT window, diarrhea, 800-mg QD): one and a DLT
- ER agonist effects on the lipid profiles of patients (in vivo): no clinically significant ER agonist effects
- patients who reported SAEs regardless of attribution (phase 1a): 13 n
- SAE Pneumothorax (phase 1a (n=41), grade 1, cohort 800 mg, non-fasting): 1 (2%) n (%)
- SAE Presyncope (phase 1a (n=41), grade 2, cohort 300 mg, BID): 1 (2%) n (%)
- SAE Urinary tract infection (phase 1a (n=41), grade 3, cohort 100 mg): 1 (2%) n (%)
- SAE Abdominal pain [1]: 1 (2%) n (%)
- SAE Nausea [1]: 1 (2%) n (%)
- SAE Vomiting [1]: 1 (2%) n (%)
- SAE Skin infection [2]: 1 (2%) n (%)
- SAE Venous thrombosis [2]: 1 (2%) n (%)
- SAE Anemia [3]: 1 (2%) n (%)
- SAE Ascites [3]: 1 (2%) n (%)
- SAE Adrenal insufficiency [4]: 1 (2%) n (%)
- SAE Fatigue [4]: 1 (2%) n (%)
- SAE Pulmonary embolism (phase 1a (n=41), grade 4, cohort 300 mg, BID, related to study drug): 1 (2%) n (%)
- SAE Thrombocytopenia (phase 1a (n=41), grade 4, cohort 600 mg): 1 (2%) n (%)
- SAE Cardiac arrest [5]: 1 (2%) n (%)
- SAE Hyponatremia [5]: 1 (2%) n (%)
- SAE Cardiac failure [6]: 1 (2%) n (%)
- SAE Metastases to peritoneum [6]: 1 (2%) n (%)
- SAE Blood bilirubin increased (phase 1a (n=41), grade 5, cohort 800 mg): 1 (2%) n (%)
- patients who reported SAEs regardless of attribution (phase 1b): 3 n
- patients who reported SAEs regardless of attribution (phase 2a): 17 n
- deaths (phase IIa): 3 deaths
- AST increased, Grades 3–5 [7]: 0 n (%)
- AST increased, all grades [7]: 1 (5) n (%)
- Abdominal pain, Grades 3–5 [7]: 1 (5) n (%)
- Abdominal pain, all grades [7]: 3 (16) n (%)
- Anemia, Grades 3–5 [7]: 0 n (%)
- Anemia, all grades [7]: 2 (11) n (%)
- Arthralgia, Grades 3–5 [7]: 0 n (%)
- Arthralgia, all grades [7]: 4 (21) n (%)
- Constipation, Grades 3–5 [7]: 0 n (%)
- Constipation, all grades [7]: 2 (11) n (%)
- Cough, Grades 3–5 [7]: 0 n (%)
- Cough, all grades [7]: 2 (11) n (%)
- Decreased appetite, Grades 3–5 [7]: 0 n (%)
- Decreased appetite, all grades [7]: 6 (32) n (%)
- Diarrhea, Grades 3–5 [7]: 0 n (%)
- Diarrhea, all grades [7]: 10 (53) n (%)
- Dyspepsia, Grades 3–5 [7]: 0 n (%)
- Dyspepsia, all grades [7]: 6 (31) n (%)
- Fatigue, Grades 3–5 [7]: 0 n (%)
- Fatigue, all grades [7]: 8 (42) n (%)
- Flatulence, Grades 3–5 [7]: 0 n (%)
- Flatulence, all grades [7]: 4 (21) n (%)
- Nausea, Grades 3–5 [7]: 0 n (%)
- Nausea, all grades [7]: 8 (42) n (%)
- Vomiting, Grades 3–5 [7]: 2 (11) n (%)
- Vomiting, all grades [7]: 8 (42) n (%)
- AST increased, Grades 3–5 [8]: 0 n (%)
- AST increased, all grades [8]: 2 (20) n (%)
- Abdominal pain, Grades 3–5 [8]: 0 n (%)
- Abdominal pain, all grades [8]: 0 n (%)
- Anemia, Grades 3–5 [8]: 1 (10) n (%)
- Anemia, all grades [8]: 2 (20) n (%)
- Arthralgia, Grades 3–5 [8]: 0 n (%)
- Arthralgia, all grades [8]: 0 n (%)
- Constipation, Grades 3–5 [8]: 0 n (%)
- Constipation, all grades [8]: 0 n (%)
- Cough, Grades 3–5 [8]: 0 n (%)
- Cough, all grades [8]: 1 (10) n (%)
- Decreased appetite, Grades 3–5 [8]: 0 n (%)
- Decreased appetite, all grades [8]: 3 (30) n (%)
- Diarrhea, Grades 3–5 [8]: 1 (10) n (%)
- Diarrhea, all grades [8]: 5 (50) n (%)
- Dyspepsia, Grades 3–5 [8]: 1 (10) n (%)
- Dyspepsia, all grades [8]: 2 (20) n (%)
- Fatigue, Grades 3–5 [8]: 0 n (%)
- Fatigue, all grades [8]: 2 (20) n (%)
- Flatulence, Grades 3–5 [8]: 0 n (%)
- Flatulence, all grades [8]: 0 n (%)
- Nausea, Grades 3–5 [8]: 0 n (%)
- Nausea, all grades [8]: 6 (60) n (%)
- Vomiting, Grades 3–5 [8]: 0 n (%)
- Vomiting, all grades [8]: 4 (40) n (%)
- AST increased, Grades 3–5 [9]: 2 (4) n (%)
- AST increased, all grades [9]: 4 (8) n (%)
- Abdominal pain, Grades 3–5 [9]: 1 (2) n (%)
- Abdominal pain, all grades [9]: 10 (19) n (%)
- Anemia, Grades 3–5 [9]: 1 (2) n (%)
- Anemia, all grades [9]: 6 (11) n (%)
- Arthralgia, Grades 3–5 [9]: 0 n (%)
- Arthralgia, all grades [9]: 14 (26) n (%)
- Constipation, Grades 3–5 [9]: 1 (2) n (%)
- Constipation, all grades [9]: 16 (30) n (%)
- Cough, Grades 3–5 [9]: 1 (2) n (%)
- Cough, all grades [9]: 8 (15) n (%)
- Decreased appetite, Grades 3–5 [9]: 0 n (%)
- Decreased appetite, all grades [9]: 9 (17) n (%)
- Diarrhea, Grades 3–5 [9]: 5 (9) n (%)
- Diarrhea, all grades [9]: 29 (55) n (%)
- Dyspepsia, Grades 3–5 [9]: 0 n (%)
- Dyspepsia, all grades [9]: 6 (11) n (%)
- Fatigue, Grades 3–5 [9]: 2 (4) n (%)
- Fatigue, all grades [9]: 27 (51) n (%)
- Flatulence, Grades 3–5 [9]: 0 n (%)
- Flatulence, all grades [9]: 13 (25) n (%)
- Nausea, Grades 3–5 [9]: 0 n (%)
- Nausea, all grades [9]: 24 (45) n (%)
- Vomiting, Grades 3–5 [9]: 1 (2) n (%)
- Vomiting, all grades [9]: 14 (26) n (%)
- AST increased, Grades 3–5 [10]: 0 n (%)
- AST increased, all grades [10]: 1 (5) n (%)
- Abdominal pain, Grades 3–5 [10]: 0 n (%)
- Abdominal pain, all grades [10]: 1 (5) n (%)
- Anemia, Grades 3–5 [10]: 1 (5) n (%)
- Anemia, all grades [10]: 4 (21) n (%)
- Arthralgia, Grades 3–5 [10]: 0 n (%)
- Arthralgia, all grades [10]: 0 n (%)

Reference: publication PMC9823088, “The oral selective estrogen receptor degrader GDC-0810 (ARN-810) in postmenopausal women with hormone receptor-positive HER2-negative (HR + /HER2 −) advanced/metastatic breast cancer” (Breast Cancer Research and Treatment, 2022)
